According to US20100279327A1, “METHOD OF TREATING DISEASES WITH PARP INHIBITORS” (BiPar Sciences, Inc., priority 2006, published 2010):

Tested on: PARP1 (poly (ADP-ribose) polymerase family, member 1)
Assay: PARP1 mRNA expression, Affymetrix human genome GeneChip (probe set 208644_at), Diff/X and e-Northern
Details: Normal; for PARP1 expression, Experiment Mean: patients taking the medication, signal intensity of 208644_at; for PARP1 Fold change (FC): patients taking vs patients not taking the medication
Excerpt: GeneChip arrays have been widely used for monitoring mRNA expression in many areas of biomedical research. The high-density oligonucleotide array technology allows researchers to monitor tens of thousands of genes in a single hybridization experiment as they are expressed differently in tissues and cells. The expression profile of a mRNA molecule of a gene is obtained by the combined intensity information from probes in a probe set, which consists of 11-20 probe pairs of oligonucleotides of 25 by in length, interrogating a different part of the sequence of a gene.
The gene expressions were assessed using the Affymetrix human genome genechips (45,000 gene transcripts covering 28,473 UniGene clusters). Approximately 5 μg total RNA from each sample were labeled using high yield transcript labeling kit and labeled RNAs were hybridized, washed, and scanned according to manufacturer's specifications (Affymetrix, Inc., Santa Clara, Calif.). Affymetrix Microarray Suite 5.0 software (MASS) was used to estimate transcript signal levels from scanned images (Affymetrix). The signals on each array were normalized to a trimmed mean value of 500, excluding lowest 2% and highest 2% of the signals. An Affymetrix probe set representing a unique Genbank sequence is referred as a probe or gene hereafter for convenience. To verify any errors in the expressions caused by image defects, the correlation coefficient of each array to an idealized distribution was determined where the idealized distribution is mean of all arrays. The genes are filtered from the remaining arrays using detection P value reported by MASS. The genes having P>0.065 in 95% of the arrays are eliminated and all other signals are included for statistical comparisons of classes.
The PARP1 gene is represented on the HG-U133A array by a single probe set with the identifier W208644_at”. All results in this report were generated based on the MASS expression signal intensities for this probe set and will be referred to as “PARP1”.
The PARP1 gene is represented on the HG-U133A array by a single probe set with the identifier “208644_at”. All results in this report were generated based on the MASS expression signal intensities for this probe set and will be referred to as “PARP1”. In addition, the seven genes, BRCA1, BRCA2, RAD51, MRE11, p53, PARP2 and MUCIN 16, are represented on the HG-U133A/B array set by 11 informative probe sets. Three probe sets were excluded from this analysis because they were considered to be non-responsive on the array.
RNA is evaluated for quality and integrity (via Agilent Bioanalyzer derived […] ratio and RNA integrity number (RIN)), purity (via absorbance ratio at A260/A280), and quantity (via absorbance at A260 or alternative assay (i.e. ribogreen)), Quantity and purity of cRNA synthesis product is assessed using UV absorbance. Quality of cRNA synthesis is assessed using either the Agilent Bioanalyzer or a MOPS agarose gel. Array quality is evaluated using a proprietary high throughput application by which arrays are evaluated against several strict objective standards such as 5′/3′ GAPDH ratio, signal/noise ratio. and background as well as over thirty additional metrics (e.g. outlier, vertical variance). Data generated throughout the process is managed within the quality system to ensure data integrity of the data.
23, 122, and 57 pathologically normal tissue samples were used to determine baseline expression of the PARP1 gene in endometroid, lung, and prostate tissue, respectively. The mean and 90%, 95%, 99%, and 99.9% upper confidence limits for an individual predicted value (UCLs) were calculated. Because we are assessing the likelihood that individual samples external to the normal set are within the baseline distribution, the prediction interval, rather than the confidence interval for the mean, was selected to estimate the expected range for future individual measurements. […]

[1] = Superior Temporal Gyrus (Brodmann Area 22)
[2] = Stomach, positive = up-regulated, negative = down-regulated

| PARP1 expression, Experiment Mean (Stomach) | PARP1 Fold change (FC) [2] | Compound | other results |
| --- | --- | --- | --- |
|  |  | CC(=O)Nc1ccc(O)cc1 [Acetaminophen] | PARP1 expression, Experiment Mean [1]: 290.49; PARP1 Fold change (FC) [1]: 1.28 |
|  |  | CC(C)NCC(O)COc1ccc(CC(N)=O)cc1 (centres unmarked) [Atenolol] | PARP1 expression, Experiment Mean (Ovary): 138.57; PARP1 Fold change (FC) (Ovary, negative = down-regulated): −1.22 |
| 176.85 | −1.24 | CC(C)c1c(C(=O)Nc2ccccc2)c(-c2ccccc2)c(-c2ccc(F)cc2)n1CC[C@@H](O)C[C@@H](O)CC(=O)O [Atorvastatin] |  |
| 228.75 | 1.27 | Estrogens |  |
